# Columns and labels:
# Type in all cases: functional
# [1] = system: Photobacterium leiognathi; test: Growth inhibition of Photobacterium leiognathi Sh1 assessed as bio-luminescence at 0.025 mg/ml after 16 to 18 hr by chronic action test relative to control; parameters: scale not given: the % may be the effect or the level left
# SR = test: Cytotoxicity against Homo sapiens (human) SR cells assessed as cell growth at 10 uM after 48 hr by SRB assay relative to control; details: read-out: Activity
# [2] = Cytotoxicity against Homo sapiens (human) […] cells assessed as cell growth at 10 uM after 48 hr by SRB assay relative to control; details: read-out: Activity
# [3] = system: Photobacterium leiognathi; test: Growth inhibition of Photobacterium leiognathi Sh1 assessed as bio-luminescence at 0.1 mg/ml after 10 min by acute action test relative to control; parameters: scale not given: the % may be the effect or the level left
# CCRF-CEM = test: Cytotoxicity against Homo sapiens (human) CCRF-CEM cells assessed as cell growth at 10 uM after 48 hr by SRB assay relative to control; details: read-out: Activity
# KM12 = test: Cytotoxicity against Homo sapiens (human) KM12 cells assessed as cell growth at 10 uM after 48 hr by SRB assay relative to control; details: KM12, 48 h, read-out: Activity
# HL-60(TB) = test: Cytotoxicity against Homo sapiens (human) HL-60(TB) cells assessed as cell growth at 10 uM after 48 hr by SRB assay relative to control; details: HL-60, 48 h, read-out: Activity
# HCT-116 = test: Cytotoxicity against Homo sapiens (human) HCT116 cells assessed as cell growth at 10 uM after 48 hr by SRB assay relative to control; details: HCT-116, 48 h, read-out: Activity
# K562 = test: Cytotoxicity against Homo sapiens (human) K562 cells assessed as cell growth at 10 uM after 48 hr by SRB assay relative to control; details: K562, 48 h, read-out: Activity
# [4] = system: Photobacterium leiognathi; test: Growth inhibition of Photobacterium leiognathi Sh1 assessed as bio-luminescence at 0.025 mg/ml after 10 min by acute action test relative to control; parameters: scale not given: the % may be the effect or the level left
# [5] = system: Photobacterium leiognathi; test: Growth inhibition of Photobacterium leiognathi Sh1 assessed as bio-luminescence at 0.25 mg/ml after 10 min by acute action test relative to control; parameters: scale not given: the % may be the effect or the level left
# HCT-15 = test: Cytotoxicity against Homo sapiens (human) HCT15 cells assessed as cell growth at 10 uM after 48 hr by SRB assay relative to control; details: HCT-15, 48 h, read-out: Activity
# SW-620 = test: Cytotoxicity against Homo sapiens (human) SW620 cells assessed as cell growth at 10 uM after 48 hr by SRB assay relative to control; details: SW-620, 48 h, read-out: Activity
# HT-29 = test: Cytotoxicity against Homo sapiens (human) HT-29 cells assessed as cell growth at 10 uM after 48 hr by SRB assay relative to control; details: HT-29, 48 h, read-out: Activity
# MOLT-4 = test: Cytotoxicity against Homo sapiens (human) MOLT4 cells assessed as cell growth at 10 uM after 48 hr by SRB assay relative to control; details: MOLT-4, 48 h, read-out: Activity
# [6] = system: Photobacterium leiognathi; test: Growth inhibition of Photobacterium leiognathi Sh1 assessed as bio-luminescence at 0.1 mg/ml after 16 to 18 hr by chronic action test relative to control; parameters: scale not given: the % may be the effect or the level left
# [7] = system: Photobacterium leiognathi; test: Growth inhibition of Photobacterium leiognathi Sh1 assessed as bio-luminescence at 0.25 mg/ml after 16 to 18 hr by chronic action test relative to control; parameters: scale not given: the % may be the effect or the level left
# BT-549 = test: Cytotoxicity against Homo sapiens (human) BT549 cells after 48 hr by SRB assay; details: BT-549, 48 h
# LOX IMVI = test: Cytotoxicity against Homo sapiens (human) LOXIMVI cells assessed as cell growth at 10 uM after 48 hr by SRB assay relative to control; details: read-out: Activity
# 786-0 = test: Cytotoxicity against Homo sapiens (human) 786-0 cells assessed as cell growth at 10 uM after 48 hr by SRB assay relative to control; details: 786-0, 48 h, read-out: Activity
# U-251 = test: Cytotoxicity against Homo sapiens (human) U251 cells assessed as cell growth at 10 uM after 48 hr by SRB assay relative to control; details: U-251, 48 h, read-out: Activity
# A498 = test: Cytotoxicity against Homo sapiens (human) A498 cells after 48 hr by SRB assay; details: A498, 48 h
# SNB-75 = test: Cytotoxicity against Homo sapiens (human) SNB75 cells after 48 hr by SRB assay; details: SNB-75, 48 h
# OVCAR-3 = test: Cytotoxicity against Homo sapiens (human) OVCAR3 cells assessed as cell growth at 10 uM after 48 hr by SRB assay relative to control; details: OVCAR-3, 48 h, read-out: Activity
# HOP-92 = test: Cytotoxicity against Homo sapiens (human) HOP92 cells assessed as cell growth at 10 uM after 48 hr by SRB assay relative to control; details: HOP-92, 48 h, read-out: Activity
# HOP-62 = test: Cytotoxicity against Homo sapiens (human) HOP62 cells after 48 hr by SRB assay; details: HOP-62, 48 h
# PC-3 = test: Cytotoxicity against Homo sapiens (human) PC3 cells assessed as cell growth at 10 uM after 48 hr by SRB assay relative to control; details: PC-3, 48 h, read-out: Activity
# UO-31 = test: Cytotoxicity against Homo sapiens (human) UO31 cells after 48 hr by SRB assay; details: UO-31, 48 h
# NCI-H460 = test: Cytotoxicity against Homo sapiens (human) NCI-H460 cells assessed as cell growth at 10 uM after 48 hr by SRB assay relative to control; details: NCI-H460, 48 h, read-out: Activity
# SF-295 = test: Cytotoxicity against Homo sapiens (human) SF295 cells assessed as cell growth at 10 uM after 48 hr by SRB assay relative to control; details: SF-295, 48 h, read-out: Activity
# SF-268 = test: Cytotoxicity against Homo sapiens (human) SF268 cells assessed as cell growth at 10 uM after 48 hr by SRB assay relative to control; details: SF-268, 48 h, read-out: Activity
# A549 = test: Cytotoxicity against Homo sapiens (human) A549 cells assessed as cell growth at 10 uM after 48 hr by SRB assay relative to control; details: A549, 48 h, read-out: Activity
# MDA-MB-435 = test: Cytotoxicity against Homo sapiens (human) MDA-MB-435 cells assessed as cell growth at 10 uM after 48 hr by SRB assay relative to control; details: MDA-MB-435, 48 h, read-out: Activity
# DU-145 = test: Cytotoxicity against Homo sapiens (human) DU145 cells assessed as cell growth at 10 uM after 48 hr by SRB assay relative to control; details: DU-145, 48 h, read-out: Activity
smiles,measurement,setting,value
COc1ccc(-c2nn3c(SCC(=O)Nc4ccccc4F)nc4ccccc4c3nc2=O)cc1,Activity,[1],100%
same,growth at 10 µM,SR,48.2%
same,growth at 10 µM,[2],67.6%
same,Activity,[3],84%
same,growth at 10 µM,CCRF-CEM,67.5%
same,growth at 10 µM,KM12,51.3%
same,growth at 10 µM,HL-60(TB),67.9%
same,growth at 10 µM,HCT-116,56.7%
same,growth at 10 µM,K562,60.2%
same,Activity,[4],90%
same,Activity,[5],40%
same,growth at 10 µM,HCT-15,92.2%
same,growth at 10 µM,SW-620,65.6%
same,growth at 10 µM,HT-29,67.8%
same,growth at 10 µM,MOLT-4,52.7%
same,Activity,[6],96.67%
same,Activity,[7],100%
O=C(CSc1nc2ccccc2c2nc(=O)c(-c3ccccc3)nn12)NCc1ccccc1,GI50,BT-549,3.02 µM
same,LC50,BT-549,> 100 µM
same,TGI,BT-549; read-out: pTGI (converted),7.76 µM
same,growth at 10 µM,LOX IMVI,29.5%
same,Activity,[1],84.9%
same,growth at 10 µM,SR,41.9%
same,growth at 10 µM,[2],44.5%
same,growth at 10 µM,786-0,-7.56%
same,growth at 10 µM,U-251,30.1%
same,Activity,[3],112.5%
same,growth at 10 µM,CCRF-CEM,37.9%
same,growth at 10 µM,KM12,12%
same,GI50,A498,0.0269 µM
same,LC50,A498,> 100 µM
same,TGI,A498; read-out: pTGI (converted),37.2 µM
same,growth at 10 µM,HL-60(TB),51.6%
same,GI50,SNB-75,2.19 µM
same,LC50,SNB-75,43.7 µM
same,TGI,SNB-75; read-out: pTGI (converted),13.5 µM
same,growth at 10 µM,OVCAR-3,13.7%
same,growth at 10 µM,HCT-116,48.6%
same,growth at 10 µM,HOP-92,24.6%
same,growth at 10 µM,K562,29.7%
same,Activity,[4],125%
same,Activity,[5],100%
same,GI50,HOP-62,2.75 µM
same,LC50,HOP-62,30.2 µM
same,TGI,HOP-62; read-out: pTGI (converted),7.08 µM
same,growth at 10 µM,PC-3,18.1%
same,GI50,UO-31,2.57 µM
same,LC50,UO-31,> 100 µM
same,TGI,UO-31; read-out: pTGI,> 100 µM
same,growth at 10 µM,NCI-H460,1.57%
same,growth at 10 µM,SW-620,19.4%
same,growth at 10 µM,SF-295,55.7%
same,growth at 10 µM,SF-268,53.1%
same,growth at 10 µM,A549,12.8%
same,growth at 10 µM,MOLT-4,43%
same,Activity,[6],113.6%
same,Activity,[7],78.2%
same,growth at 10 µM,MDA-MB-435,21.7%
same,growth at 10 µM,DU-145,21.8%

# From ChEMBL document CHEMBL3045943, “Novel N-aryl(alkaryl)-2-[(3-R-2-oxo-2H-[1,2,4]triazino[2,3-c]quinazoline-6-yl)thio]acetamides: synthesis, cytotoxicity, anticancer activity, COMPARE analysis and docking” (2013)
